According to ChEMBL document CHEMBL1201862, “PubChem BioAssay data set” (2004):
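Assay format: 96-well plates, 48-hour exposure. GI50 is the concentration that inhibits growth by half.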 Active and inactive are the calls of the source. No stated cut-off is given here; in the data, active = GI50 up to about 1.1 µM and inactive = higher.

How the values were obtained:
Assay in all cases: NCI-60 cell line screen, 48 h
SNB-75 = tested on: SNB-75
HOP-92 = tested on: HOP-92
OVCAR-4 = tested on: OVCAR-4
OVCAR-5 = tested on: OVCAR-5
MDA-MB-435 = tested on: MDA-MB-435
786-0 = tested on: 786-0
U-251 = tested on: U-251
SR = tested on: SR
SK-MEL-5 = tested on: SK-MEL-5
TK-10 = tested on: TK-10
SW-620 = tested on: SW-620
Hs-578T = tested on: Hs-578T
A498 = tested on: A498
EKVX = tested on: EKVX
OVCAR-3 = tested on: OVCAR-3
SNB-19 = tested on: SNB-19
MCF7 = tested on: MCF7
COLO 205 = tested on: COLO 205
SK-MEL-2 = tested on: SK-MEL-2
MDA-N = tested on: MDA-N

Measured: GI50

C=CC[C@@H]1C=C[C@@H](C(=O)OC)n2c(=O)n(-c3ccccc3)c(=O)n21
inactive: SNB-75 > 100 µM | HOP-92 > 100 µM | OVCAR-4 > 100 µM | OVCAR-5 > 100 µM | MDA-MB-435 > 100 µM | 786-0 > 100 µM | U-251 > 100 µM | SR > 100 µM | SK-MEL-5 > 100 µM | TK-10 > 100 µM | SW-620 > 100 µM | Hs-578T > 100 µM | A498 > 100 µM | EKVX > 100 µM | OVCAR-3 > 100 µM | SNB-19 > 100 µM | MCF7 > 100 µM | COLO 205 > 100 µM

NNC(=O)C(=O)NN=C(C(Cl)(Cl)CO)C(Cl)(Cl)CO
inactive: SNB-75 32.5 µM | HOP-92 33.4 µM | OVCAR-4 > 100 µM | OVCAR-5 31.3 µM | SK-MEL-2 22.1 µM | 786-0 36.4 µM | U-251 19.5 µM | SR 18.6 µM | SK-MEL-5 40.4 µM | TK-10 60.3 µM | SW-620 18.4 µM | A498 > 100 µM | EKVX 40.7 µM | OVCAR-3 25.6 µM | SNB-19 48.1 µM | COLO 205 > 100 µM

CCCCC/N=C/c1c(O)c(O)c(C(C)C)c2cc(C)c(-c3c(C)cc4c(C(C)C)c(O)c(O)c(/C=N/CCCCC)c4c3O)c(O)c12
inactive: HOP-92 3.73 µM | OVCAR-5 19 µM | MDA-MB-435 6.3 µM | SK-MEL-2 14 µM | 786-0 11.8 µM | U-251 3.06 µM | SR 4.24 µM | SK-MEL-5 6.3 µM | TK-10 15 µM | SW-620 6.97 µM | Hs-578T 17.2 µM | A498 27.3 µM | EKVX 7.96 µM | OVCAR-3 5.28 µM | SNB-19 3.78 µM | MCF7 4.81 µM | COLO 205 2.75 µM

COc1ccc(N(C)CN(C)c2nc(N(C)C)nc(N(C)C)n2)cc1
inactive: SNB-75 > 100 µM | HOP-92 > 100 µM | OVCAR-4 > 100 µM | OVCAR-5 > 100 µM | SK-MEL-2 > 100 µM | 786-0 > 100 µM | U-251 > 100 µM | SR > 100 µM | SK-MEL-5 > 100 µM | TK-10 > 100 µM | SW-620 > 100 µM | A498 > 100 µM | EKVX > 100 µM | OVCAR-3 > 100 µM | SNB-19 > 100 µM | COLO 205 > 100 µM

C[n+]1c(-c2ccc(/C=N/NC(=N)N/N=C/c3ccc(-c4cn5cc(Cl)ccc5[n+]4C)cc3)cc2)cn2cc(Cl)ccc21
inactive: SNB-75 > 100 µM | OVCAR-4 > 100 µM | OVCAR-5 > 100 µM | MDA-MB-435 > 100 µM | 786-0 73.3 µM | U-251 > 100 µM | SR > 100 µM | SK-MEL-5 > 100 µM | TK-10 > 100 µM | SW-620 > 100 µM | Hs-578T > 100 µM | EKVX > 100 µM | SNB-19 > 100 µM | MCF7 > 100 µM | COLO 205 > 100 µM

CCOC(=O)Cc1nc2nn(Cc3ccccc3)cc2c(=O)[nH]1
inactive: SNB-75 > 100 µM | MDA-N > 100 µM | OVCAR-4 > 100 µM | OVCAR-5 > 100 µM | MDA-MB-435 > 100 µM | 786-0 > 100 µM | U-251 > 100 µM | SK-MEL-5 > 100 µM | TK-10 > 100 µM | SW-620 > 100 µM | A498 19.3 µM | EKVX > 100 µM | OVCAR-3 > 100 µM | SNB-19 > 100 µM | MCF7 > 100 µM | COLO 205 > 100 µM

COc1ccc(/N=C(C)/C(C)=N/c2ccc(OC)cc2)cc1
inactive: SNB-75 > 100 µM | HOP-92 88.1 µM | OVCAR-4 17.7 µM | OVCAR-5 > 100 µM | MDA-MB-435 8.95 µM | SK-MEL-2 > 100 µM | 786-0 > 100 µM | U-251 > 100 µM | SR 65.6 µM | SK-MEL-5 64 µM | TK-10 > 100 µM | SW-620 63.1 µM | Hs-578T > 100 µM | A498 > 100 µM | EKVX > 100 µM | OVCAR-3 > 100 µM | SNB-19 > 100 µM | MCF7 > 100 µM | COLO 205 14.4 µM

Cc1ccc2c(c1)NC(=O)C(N=[N+]=[N-])(c1ccccc1)C2=O (stereo not drawn)
inactive: SNB-75 33.4 µM | HOP-92 24.5 µM | OVCAR-4 44.2 µM | OVCAR-5 33 µM | SK-MEL-2 17.9 µM | 786-0 30.5 µM | U-251 25.8 µM | SR 20.7 µM | SK-MEL-5 23.1 µM | TK-10 34.4 µM | SW-620 34.8 µM | A498 39.9 µM | EKVX 30.3 µM | OVCAR-3 18.9 µM | SNB-19 30.6 µM | COLO 205 14.1 µM
